According to the Deep4Chem optical property database:
Values belong to the molecule of their own block, whether it stands above or below them.

Assay: solvent given as SMILES
[1] = in O=P(c1ccccc1)(c1ccccc1)c1ccccc1Oc1ccccc1P(=O)(c1ccccc1)c1ccccc1

emission maximum (in ClCCl): 468 nm
Structure (SMILES): COc1ccc2oc(=N)c(C#N)cc2c1

Structure (SMILES): CN(C)CCN(Cc1c2ccccc2c(CN(CCN(C)C)c2ccc([N+](=O)[O-])cc2[N+](=O)[O-])c2ccccc12)c1ccc([N+](=O)[O-])cc1[N+](=O)[O-]
emission maximum (in C1CCCCC1): 416 nm
emission maximum (in C1CCOC1): 419 nm
emission maximum (in CC#N): 389 nm
emission maximum (in CC(C)=O): 387 nm
emission maximum (in CCO): 388 nm
emission maximum (in CN(C)C=O): 424 nm
emission maximum (in CO): 389 nm
emission maximum (in ClC(Cl)Cl): 417 nm

emission maximum (in ClCCl): 540 nm
Structure (SMILES): C(=C\c1cc(/C=C/c2ccc(N(c3ccccc3)c3ccccc3)cc2)ncn1)/c1ccc(N(c2ccccc2)c2ccccc2)cc1

emission maximum (in CC#N): 504 nm
emission maximum (in ClCCl): 635 nm
Structure (SMILES): Cn1c(=O)cc(C(=O)c2ccccc2)c2sc(-c3ccc(N(c4ccccc4)c4ccccc4)cc3)cc21

emission maximum (in C1CCOC1): 412 nm
emission maximum (in CC#N): 408 nm
emission maximum (in CCOC(C)=O): 414 nm
emission maximum (in CS(C)=O): 409 nm
emission maximum (in ClC(Cl)Cl): 415 nm
Structure (SMILES): N#Cc1cc2ccc(O)cc2oc1=N

emission maximum (in ClCCl): 572 nm
Structure (SMILES): COc1ccc(C2=C3C=C(/C=C/C(=O)OC(C)(C)C)C=[N+]3[B-](F)(F)n3cccc32)cc1

Structure (SMILES): O=C1OC(=O)C2=C1[Se][C@]13C2=C[C@H](c2ccccc21)c1ccccc13
emission maximum (in ClCCl): 517 nm

emission maximum (in O): 425 nm
Structure (SMILES): [NH3+]c1ccc2ccc([O-])cc2c1

emission maximum (in C1CCCCC1): 431 nm
emission maximum (in CC#N): 445 nm
emission maximum (in CO): 441 nm
emission maximum (in ClCCl): 443 nm
Structure (SMILES): COc1ccc2c(c1)c1c(OC)c3ccccc3c(OC)c1n2C

Structure (SMILES): CC(=O)c1nc(-c2ccc(N(C)C)cc2)oc1C
emission maximum (in CC#N): 376 nm
emission maximum (in CCO): 377 nm
emission maximum (in CCOC(C)=O): 370 nm
emission maximum (in CCOCC): 368 nm
emission maximum (in ClCCl): 373 nm

emission maximum (in c1cc(-c2cccc(-n3c4ccccc4c4ccccc43)c2)cc(-n2c3ccccc3c3ccccc32)c1): 485 nm
emission maximum (in c1ccc2c(c1)c1ccccc1n2-c1ccc2sc3ccc(-n4c5ccccc5c5ccccc54)cc3c2c1): 489 nm
emission maximum (in c1ccc2c(c1)c1ccccc1n2-c1ccc2sc3ccc(-n4c5ccccc5c5cccnc54)cc3c2c1): 495 nm
emission maximum (in c1ccc2c(c1)c1cccnc1n2-c1ccc2sc3ccc(-n4c5ccccc5c5cccnc54)cc3c2c1): 498 nm
Structure (SMILES): Cc1cc(-n2c3ccccc3c3ccccc32)c(-n2c3ccccc3c3ccccc32)cc1C#N

emission maximum (in ClCCl): 488 nm
Structure (SMILES): CN(C)c1ccc(/C=C/c2ccncn2)cc1

Structure (SMILES): CCCCC1(CCCC)c2cc(C#Cc3ccc4ccc5cccc6ccc3c4c56)ccc2-c2ccc(C#Cc3ccc4ccc5cccc6ccc3c4c56)cc21
emission maximum (in C1CCCCC1): 433 nm
emission maximum (in C1CCOC1): 437 nm
emission maximum (in CC#N): 433 nm
emission maximum (in CCOC(C)=O): 433 nm
emission maximum (in CN(C)C=O): 441 nm
emission maximum (in Cc1ccccc1): 438 nm
emission maximum (in ClC(Cl)Cl): 439 nm
emission maximum (in ClCCl): 439 nm

Structure (SMILES): Cc1ccc(C2=C3C=CC(c4ccccc4)=[N+]3[B-](F)(F)n3c2ccc3-c2ccccc2)cc1
emission maximum (in C1CCCCC1): 585 nm
emission maximum (in C1CCOC1): 586 nm
emission maximum (in C1COCCO1): 587 nm
emission maximum (in CCOC(C)=O): 583 nm
emission maximum (in CO): 582 nm
emission maximum (in Cc1ccccc1): 589 nm
emission maximum (in ClC(Cl)Cl): 588 nm

Structure (SMILES): CCCCCCOc1ccc(/C=C/c2ccc(N(c3ccc(/C=C/c4ccc(OCCCCCC)cc4)cc3)c3ccc(-c4nc5ccccc5nc4-c4ccc(N(c5ccc(/C=C/c6ccc(OCCCCCC)cc6)cc5)c5ccc(/C=C/c6ccc(OCCCCCC)cc6)cc5)cc4)cc3)cc2)cc1
emission maximum (in C1CCOC1): 518 nm
emission maximum (in Cc1ccccc1): 505 nm

Structure (SMILES): COc1ccc(C2=[N+]3C(=Nc4c(-c5cc(OC)c(OC)c(OC)c5)c(-c5ccc(C(C)(C)C)cc5)c(-c5ccc(OC)cc5)n4[B-]3(F)F)C(c3cc(OC)c(OC)c(OC)c3)=C2c2ccc(C(C)(C)C)cc2)cc1
emission maximum (in Cc1ccccc1): 726 nm

emission maximum (in ClCCl): 402 nm
Structure (SMILES): COc1cc2c(cc1OC)C1=C[C@H](c3ccc(C)cc3)C3(C(C#N)=C(C#N)N1CC2)c1cc(Cl)ccc1-c1ccc(Cl)cc13

emission maximum (in ClCCl): 521 nm
Structure (SMILES): COc1cc(/C=C/c2nc(N3CCOCC3)c3c([n+]2[O-])CCCC3)cc(OC)c1OC

Structure (SMILES): c1ccc2c(c1)Sc1ccccc1N2c1ccc2c(c1)C1(c3ccccc3-c3ccccc31)c1cc(N3c4ccccc4Sc4ccccc43)ccc1-2
emission maximum (in Cc1ccccc1): 498 nm

emission maximum (in C1CCCCC1): 602 nm
emission maximum (in CCOC(C)=O): 602 nm
emission maximum (in CO): 600.5 nm
Structure (SMILES): Cc1ccccc1C1=C2C=c3c(oc4ccc(C(C)(C)C)cc34)=[N+]2[B-](F)(F)n2c1cc1c3cc(C(C)(C)C)ccc3oc12

emission maximum (in CC#N): 547 nm
Structure (SMILES): COC(=O)CC1(C(=O)O)Oc2c(c(C(C)=O)c3c(c2C(C)=O)OCO3)O1

emission maximum (in CC#N): 549 nm
Structure (SMILES): CC1=C(c2ccccc2)C2=Cc3c(-c4ccccc4)c(C)c(C)n3[B-](F)(F)[N+]2=C1C

emission maximum (in CS(C)=O): 443 nm
Structure (SMILES): O=C1CCCC2=C1C(c1cccc(Cl)c1)c1c(c3ccccc3oc1=O)N2 (configuration not stated)

Structure (SMILES): COc1ccc2c3c(cccc13)C(=O)N(C)C2=O
emission maximum (in C1CCCCC1): 404 nm
emission maximum (in C1CCOC1): 430 nm
emission maximum (in CC#N): 434 nm
emission maximum (in CC(C)CC(C)(C)C): 402 nm
emission maximum (in CCCCCCCCCCCC): 402 nm
emission maximum (in CCO): 444 nm
emission maximum (in CN(C)C=O): 444 nm
emission maximum (in CO): 450 nm
emission maximum (in CS(C)=O): 452 nm
emission maximum (in ClC(Cl)(Cl)Cl): 412 nm
emission maximum (in O): 462 nm

emission maximum (in CC#N): 557 nm
Structure (SMILES): COc1ccc(-c2csc(/C(C#N)=C/c3ccc(Cl)cc3Cl)n2)cc1

Structure (SMILES): COc1cc2cc(-c3cc4cc(OC)c(OC)cc4oc3=O)oc2cc1OC
emission maximum (in CC#N): 493 nm
emission maximum (in CCOC(C)=O): 478 nm
emission maximum (in CS(C)=O): 500 nm
emission maximum (in Cc1ccccc1): 475 nm
emission maximum (in O): 435 nm

emission maximum (in CC#N): 459 nm
emission maximum (in CCO): 499 nm
Structure (SMILES): CC1(C)CC(=O)c2c(F)c(F)cc(F)c2N1

emission maximum (in ClCCl): 413 nm
Structure (SMILES): CC(C)(C)NC(=O)c1ccc(-c2ccccc2)c2ccc3c4ccccc4c4ccccc4c3c12

emission maximum (in C1COCCO1): 414 nm
emission maximum (in CC#N): 426 nm
emission maximum (in CCO): 434 nm
emission maximum (in CCOC(C)=O): 421 nm
emission maximum (in ClC(Cl)Cl): 435 nm
emission maximum (in c1ccccc1): 421 nm
Structure (SMILES): CCOC(=O)CSc1nc(-c2ccccc2)c(C)c(C#N)c1C#N

emission maximum (in C1CCCCC1): 550 nm
Structure (SMILES): CCCCc1cc2cccc3cc(CCCC)c4cc(-c5cc6[b-]7c(c5)c(CCCC)cc5cccc(cc6CCCC)[n+]75)cc1[b-]4[n+]23

emission maximum (in C1CCOC1): 393 nm
Structure (SMILES): Cc1cc(C)c(C2=C(c3c(C)sc(-c4ccc(-c5nc(-c6ccccc6)c(-c6ccccc6)[nH]5)cc4)c3C)C(F)(F)C(F)(F)C2(F)F)s1

Structure (SMILES): c1ccc(-c2nn(-c3ccccc3)c3nc4ccccc4cc23)cc1
emission maximum (in C1CCCCC1): 443.66 nm
emission maximum (in C1CCOC1): 467.73 nm
emission maximum (in CC#N): 478.01 nm
emission maximum (in CC(C)=O): 472.59 nm
emission maximum (in CCCCCl): 462.96 nm
emission maximum (in CCCCOCCCC): 454.96 nm
emission maximum (in CN(C)C=O): 476.64 nm

Structure (SMILES): Cc1c(-c2ccc(N3c4ccccc4C(C)(C)c4ccccc43)cc2)ncnc1-c1ccc(N2c3ccccc3C(C)(C)c3ccccc32)cc1
emission maximum (in Cc1ccccc1): 477 nm
emission maximum [1]: 481 nm

Structure (SMILES): c1ccc(-c2nc(-c3ccccc3)nc(-c3ccc(-n4c5ccccc5c5cc6c(cc54)C4c5ccccc5C6c5ccccc54)cc3)n2)cc1
emission maximum (in Cc1ccccc1): 432 nm
emission maximum [1]: 457 nm

emission maximum (in CC#N): 549 nm
emission maximum (in CCO): 557 nm
emission maximum (in CN(C)C=O): 532 nm
emission maximum (in O): 555 nm
Structure (SMILES): CCN(CC)c1ccc2cc3ccc(=[N+](CC)CC)cc-3oc2c1

emission maximum (in CO): 382 nm
Structure (SMILES): O=C(O)CCCOc1cc2ccc3cccc4ccc(c1)c2c34

emission maximum (in ClCCl): 757 nm
Structure (SMILES): CCN(CC)c1ccc2c(-c3ccccc3C(=O)O)c3c([o+]c2c1)/C(=C/c1ccc(N(C)C)cc1)CCC3

emission maximum (in ClC(Cl)Cl): 454 nm
Structure (SMILES): CC(=C(C#Cc1ccccc1)C#Cc1ccccc1)c1ccc(C(C)=C(C#Cc2ccccc2)C#Cc2ccccc2)cc1
